Here are results for three compounds from the NIST ThermoML archive (doi:10.1021/je500389t).

Numbers after ± are expanded uncertainties.

For data set [1] the following is noted: 101 kPa, Liquid; for viscosity: Capillary tube (Ostwald / Ubbelohde) method; for mass density: Pycnometric method.
Data set [2] in a line: xn = mol fraction of the nth substance listed. The note with it: 101 kPa, Liquid, Capillary tube (Ostwald / Ubbelohde) method, x2 = 0.

Consider `COCCOCCOC` [2,5,8-trioxanonane], for which the viscosity in data set [1] (293.15 K) is 1.09 ± 0.04 mPa·s; in data set [1] (298.15 K), 0.998 ± 0.041 mPa·s; in data set [1] (303.15 K), 0.914 ± 0.04 mPa·s; in data set [1] (308.15 K), 0.834 ± 0.04 mPa·s; in data set [1] (313.15 K), 0.785 ± 0.04 mPa·s. The mass density amounted to 945.2 ± 2 kg/m3 in data set [1] (293.15 K); 939.8 ± 2 kg/m3 in data set [1] (298.15 K); 935 ± 2 kg/m3 in data set [1] (303.15 K); 930.7 ± 2 kg/m3 in data set [1] (308.15 K); 925.4 ± 2 kg/m3 in data set [1] (313.15 K).
On to `O` [water] + COCCOCCOC, for which the viscosity is 1.01 ± 0.04 mPa·s in data set [2] (293.15 K); 0.89 ± 0.04 mPa·s in data set [2] (298.15 K); 0.801 ± 0.04 mPa·s in data set [2] (303.15 K); 0.723 ± 0.04 mPa·s in data set [2] (308.15 K); 0.656 ± 0.04 mPa·s in data set [2] (313.15 K).
Turning to `O` [water], the viscosity is on record as 1.01 ± 0.04 mPa·s in data set [1] (293.15 K); 0.89 ± 0.04 mPa·s in data set [1] (298.15 K); 0.801 ± 0.04 mPa·s in data set [1] (303.15 K); 0.723 ± 0.04 mPa·s in data set [1] (308.15 K); 0.656 ± 0.04 mPa·s in data set [1] (313.15 K).

The viscosity is the resistance of a fluid to flow. What is called mass density is the mass of a sample divided by its volume.
